Assay results from publication PMC9281440, “In Vivo Distribution and Therapeutic Efficacy of Radioiodine-Labeled pH-Low Insertion Peptide Variant 3 in a Mouse Model of Breast Cancer” (Molecular Imaging, 2022).
Like-named read-outs stand apart in the source and are kept apart here. Peptide text beside a SMILES is read from it.

Assay: Micro-SPECT/CT imaging and distribution of 125I-labeled pHLIPs
Format: in vivo, mouse
Details: female, mouse, total radioactivity, 3.7 MBq iv, micro-SPECT/CT ROI, mean ± SD, n = 4; for tissue uptake at 1 h: 1 h pi; for tissue uptake at 2 h: 2 h pi; for tissue uptake at 4 h: 4 h pi; for tissue uptake at 24 h: 24 h pi; for tissue uptake at 48 h: 48 h pi
Procedure: Five-week-old female athymic BALB/c nude mice (Shanghai Slaccas Experiment Animal Corp., Shanghai, China) were used in our study. Mouse xenograft models of MDA-MB-231, 4T1, and SK-BR-3 cells were produced by the subcutaneous injection of 5 × 10^6 cells (suspended in 150 μL PBS) into the right axilla of each mouse. The mice were used in subsequent experiments when tumor diameter reached 0.5-0.9 cm. The study protocol was approved by the institutional review board and by the Experimental Animal Center of Ruijin Hospital affiliated to the School of Medicine of Shanghai Jiao Tong University.
Three days before micro-SPECT/CT imaging, 300 μL of 1% Kl solution was administered to mice by oral gavage once a day, and 0.1% Kl was added into the drinking water to block thyroid gland activity. Mice-bearing MDA-MB-231, 4T1, or SK-BR-3 tumors were intravenously injected with 3.7 MBq of ^125I-WT-pHLIP or ^125I-Var3-pHLIP. Each group contained four mice. The mice were anesthetized by isoflurane inhalation, placed in the prone position, and scanned using a four-head SPECT/CT system (U-SPECT/CT, MI-Lab, Netherlands) and dedicated multipinhole apertures with a diameter of 1.5 mm at 1, 2, 4, 24, and 48 h after injection of ^125I-labeled peptides. CT images were acquired after static SPECT imaging (10 min/frame). The images were reconstructed using U-SPECT REC software and analyzed using PMOD software version 3.9 (Switzerland). Regions of interest (ROIs) were drawn in the tumors and organs, including the brain, heart, liver, lungs, kidneys, intestine, and bladder, at various time points. The radioactivity per gram (ID%/g) in the ROIs was measured to obtain the dynamic tumor-to-background ratio (TBR, muscle tissue was used as the background) and the in vivo distribution and kinetics of ^125I-WT-pHLIP and ^125I-Var3-pHLIP in the xenograft models of BC.

[1] = BALB/c nude, bladder, MDA-MB-231 tumor-bearing nude mice, read-out: Distribution, Bladder
[2] = BALB/c nude, intestine, MDA-MB-231 tumor-bearing nude mice, read-out: Distribution, Intestine
[3] = BALB/c nude, muscle, MDA-MB-231 tumor-bearing nude mice, read-out: Distribution, Muscle
[4] = BALB/c nude, MDA-MB-231 tumor-bearing nude mice, read-out: Distribution, Tumor
[5] = BALB/c nude, SK-BR-3 tumor-bearing nude mice, read-out: Distribution, Tumor
[6] = athymic BALB/c nude, bladder, SK-BR-3 tumor-bearing nude mice, read-out: Distribution, Bladder
[7] = athymic BALB/c nude, brain, MDA-MB-231 tumor-bearing nude mice, read-out: Distribution, Brain
[8] = athymic BALB/c nude, brain, SK-BR-3 tumor-bearing nude mice, read-out: Distribution, Brain
[9] = athymic BALB/c nude, heart, MDA-MB-231 tumor-bearing nude mice, read-out: Distribution, Heart
[10] = athymic BALB/c nude, heart, SK-BR-3 tumor-bearing nude mice, read-out: Distribution, Heart
[11] = athymic BALB/c nude, intestine, SK-BR-3 tumor-bearing nude mice, read-out: Distribution, Intestine
[12] = athymic BALB/c nude, kidney, MDA-MB-231 tumor-bearing nude mice, read-out: Distribution, Kidney
[13] = athymic BALB/c nude, kidney, SK-BR-3 tumor-bearing nude mice, read-out: Distribution, Kidney
[14] = athymic BALB/c nude, liver, MDA-MB-231 tumor-bearing nude mice, read-out: Distribution, Liver
[15] = athymic BALB/c nude, liver, SK-BR-3 tumor-bearing nude mice, read-out: Distribution, Liver
[16] = athymic BALB/c nude, lung, MDA-MB-231 tumor-bearing nude mice, read-out: Distribution, Lung
[17] = athymic BALB/c nude, lung, SK-BR-3 tumor-bearing nude mice, read-out: Distribution, Lung
[18] = athymic BALB/c nude, muscle, SK-BR-3 tumor-bearing nude mice, read-out: Distribution, Muscle

SMILES: CC(C)C[C@H](NC(=O)[C@H](Cc1ccc(O)c(I)c1)NC(=O)[C@H](C)NC(=O)[C@H](CCCNC(=N)N)NC(=O)[C@H](Cc1c[nH]c2ccccc12)NC(=O)[C@@H]1CCCN1C(=O)[C@H](CC(N)=O)NC(=O)[C@H](CCC(N)=O)NC(=O)[C@H](CC(=O)O)NC(=O)[C@H](CC(=O)O)NC(=O)[C@H](CS)NC(=O)[C@H](C)N)C(=O)N[C@@H](CC(=O)O)C(=O)N[C@@H](CC(C)C)C(=O)N[C@@H](CC(C)C)C(=O)N[C@@H](Cc1ccccc1)C(=O)N1CCC[C@H]1C(=O)N[C@H](C(=O)N[C@@H](CC(=O)O)C(=O)N[C@H](C(=O)N[C@@H](CC(C)C)C(=O)N[C@@H](CC(C)C)C(=O)N[C@@H](CC(C)C)C(=O)N[C@@H](CC(=O)O)C(=O)N[C@@H](CC(C)C)C(=O)N[C@@H](CC(C)C)C(=O)N[C@@H](Cc1c[nH]c2ccccc12)C(=O)N[C@@H](CCCCN)C(=O)O)[C@@H](C)O)[C@@H](C)O [125I-Var3-pHLIP] (HELM PEPTIDE1{A.C.D.D.Q.N.P.W.R.A.[O=C([C@H](Cc1ccc(O)c(I)c1)N[*:1])[*:2]].L.D.L.L.F.P.T.D.T.L.L.L.D.L.L.W.K}$$$$V2.0; N-terminus and C-terminus assumed)
- tissue uptake at 1 h [1]: 20.6 ± 5.71 %ID/g
- tissue uptake at 2 h [1]: 24.8 ± 3.51 %ID/g
- tissue uptake at 4 h [1]: 31.6 ± 15.9 %ID/g
- tissue uptake at 24 h [1]: 2.14 ± 0.88 %ID/g
- tissue uptake at 48 h [1]: 0.45 ± 0.14 %ID/g
- tissue uptake at 1 h (BALB/c nude, brain, MDA-MB-231 tumor-bearing nude mice, read-out: Distribution, Brain): 1.02 ± 0.08 %ID/g
- tissue uptake at 1 h [2]: 2.59 ± 0.5 %ID/g
- tissue uptake at 2 h [2]: 3.18 ± 0.35 %ID/g
- tissue uptake at 4 h [2]: 2.12 ± 0.33 %ID/g
- tissue uptake at 24 h [2]: 0.2 ± 0.09 %ID/g
- tissue uptake at 48 h [2]: 0.1 ± 0.06 %ID/g
- tissue uptake at 1 h [3]: 1.12 ± 0.28 %ID/g
- tissue uptake at 2 h [3]: 0.96 ± 0.32 %ID/g
- tissue uptake at 4 h [3]: 0.67 ± 0.21 %ID/g
- tissue uptake at 24 h [3]: 0.09 ± 0.03 %ID/g
- tissue uptake at 48 h [3]: 0.04 ± 0.01 %ID/g
- tissue uptake at 1 h [4]: 3.16 ± 0.67 %ID/g
- tissue uptake at 2 h [4]: 3.76 ± 0.37 %ID/g
- tissue uptake at 4 h [4]: 3.09 ± 0.44 %ID/g
- tissue uptake at 24 h [4]: 0.47 ± 0.12 %ID/g
- tissue uptake at 48 h [4]: 0.22 ± 0.07 %ID/g
- tissue uptake at 2 h [5]: 2.94 ± 0.71 %ID/g
- tissue uptake at 4 h [5]: 2.45 ± 0.32 %ID/g
- tissue uptake at 24 h [5]: 0.26 ± 0.06 %ID/g
- tissue uptake at 48 h [5]: 0.18 ± 0.06 %ID/g
- tissue uptake at 1 h [6]: 18.2 ± 4.14 %ID/g
- tissue uptake at 2 h [6]: 18.7 ± 15.6 %ID/g
- tissue uptake at 4 h [6]: 23.4 ± 6.56 %ID/g
- tissue uptake at 24 h [6]: 2.44 ± 2.14 %ID/g
- tissue uptake at 48 h [6]: 0.21 ± 0.21 %ID/g
- tissue uptake at 2 h [7]: 1.13 ± 0.12 %ID/g
- tissue uptake at 4 h [7]: 0.75 ± 0.27 %ID/g
- tissue uptake at 24 h [7]: 0.13 ± 0.07 %ID/g
- tissue uptake at 48 h [7]: 0.09 ± 0.05 %ID/g
- tissue uptake at 1 h [8]: 1.02 ± 0.07 %ID/g
- tissue uptake at 2 h [8]: 0.95 ± 0.07 %ID/g
- tissue uptake at 4 h [8]: 0.68 ± 0.2 %ID/g
- tissue uptake at 24 h [8]: 0.09 ± 0.02 %ID/g
- tissue uptake at 48 h [8]: 0.09 ± 0.01 %ID/g
- tissue uptake at 1 h [9]: 9.47 ± 1.54 %ID/g
- tissue uptake at 2 h [9]: 8.29 ± 0.52 %ID/g
- tissue uptake at 4 h [9]: 5.35 ± 0.93 %ID/g
- tissue uptake at 24 h [9]: 0.39 ± 0.13 %ID/g
- tissue uptake at 48 h [9]: 0.14 ± 0.05 %ID/g
- tissue uptake at 1 h [10]: 10.3 ± 0.54 %ID/g
- tissue uptake at 2 h [10]: 8.89 ± 0.18 %ID/g
- tissue uptake at 4 h [10]: 6.02 ± 1.35 %ID/g
- tissue uptake at 24 h [10]: 0.38 ± 0.08 %ID/g
- tissue uptake at 48 h [10]: 0.1 ± 0.02 %ID/g
- tissue uptake at 1 h [11]: 3.05 ± 0.68 %ID/g
- tissue uptake at 2 h [11]: 3.01 ± 0.26 %ID/g
- tissue uptake at 4 h [11]: 2.38 ± 0.68 %ID/g
- tissue uptake at 24 h [11]: 0.31 ± 0.14 %ID/g
- tissue uptake at 48 h [11]: 0.07 ± 0.04 %ID/g
- tissue uptake at 1 h [12]: 5.66 ± 2.26 %ID/g
- tissue uptake at 2 h [12]: 5.61 ± 0.71 %ID/g
- tissue uptake at 4 h [12]: 3.8 ± 0.89 %ID/g
- tissue uptake at 24 h [12]: 0.41 ± 0.04 %ID/g
- tissue uptake at 48 h [12]: 0.25 ± 0.13 %ID/g
- tissue uptake at 1 h [13]: 6.67 ± 1.07 %ID/g
- tissue uptake at 2 h [13]: 4.24 ± 0.97 %ID/g
- tissue uptake at 4 h [13]: 3.56 ± 0.65 %ID/g
- tissue uptake at 24 h [13]: 0.42 ± 0.11 %ID/g
- tissue uptake at 48 h [13]: 0.18 ± 0.1 %ID/g
- tissue uptake at 1 h [14]: 10.3 ± 1.33 %ID/g
- tissue uptake at 2 h [14]: 10.2 ± 0.66 %ID/g
- tissue uptake at 4 h [14]: 8.11 ± 1.63 %ID/g
- tissue uptake at 24 h [14]: 1 ± 0.54 %ID/g
- tissue uptake at 48 h [14]: 0.4 ± 0.22 %ID/g
- tissue uptake at 1 h [15]: 11.4 ± 0.87 %ID/g
- tissue uptake at 2 h [15]: 10.4 ± 1.6 %ID/g
- tissue uptake at 4 h [15]: 11.4 ± 2.75 %ID/g
- tissue uptake at 24 h [15]: 0.81 ± 0.2 %ID/g
- tissue uptake at 48 h [15]: 0.23 ± 0.02 %ID/g
- tissue uptake at 1 h [16]: 9.64 ± 0.8 %ID/g
- tissue uptake at 2 h [16]: 9.1 ± 0.61 %ID/g
- tissue uptake at 4 h [16]: 6.6 ± 0.88 %ID/g
- tissue uptake at 24 h [16]: 0.49 ± 0.22 %ID/g
- tissue uptake at 48 h [16]: 0.18 ± 0.05 %ID/g
- tissue uptake at 1 h [17]: 9.81 ± 0.82 %ID/g
- tissue uptake at 2 h [17]: 9.31 ± 1.03 %ID/g
- tissue uptake at 4 h [17]: 6.93 ± 1.24 %ID/g
- tissue uptake at 24 h [17]: 0.42 ± 0.12 %ID/g
- tissue uptake at 48 h [17]: 0.14 ± 0.05 %ID/g
- tissue uptake at 1 h [18]: 1.33 ± 0.3 %ID/g
- tissue uptake at 2 h [18]: 1.21 ± 0.26 %ID/g
- tissue uptake at 4 h [18]: 0.7 ± 0.12 %ID/g
- tissue uptake at 24 h [18]: 0.06 ± 0.02 %ID/g
- tissue uptake at 48 h [18]: 0.04 ± 0.02 %ID/g
- tissue uptake at 1 h (athymic BALB/c nude, SK-BR-3 tumor-bearing nude mice, read-out: Distribution, Tumor): 2.68 ± 1.34 %ID/g
